Test results as given in BindingDB's records for doi:10.7270/Q24J0CNF (Chevron Chemical, 1990).

Target: Glutamine synthetase (Homo sapiens, UniProt P15104)
Experiment: Enzyme Assay
Conditions: pH 7
Protocol: The enzyme was assayed at pH 7.0 using the pyruvate kinase/lactate dehydroenase coupling system.

Chain of Glutamine synthetase (P15104 whole entry): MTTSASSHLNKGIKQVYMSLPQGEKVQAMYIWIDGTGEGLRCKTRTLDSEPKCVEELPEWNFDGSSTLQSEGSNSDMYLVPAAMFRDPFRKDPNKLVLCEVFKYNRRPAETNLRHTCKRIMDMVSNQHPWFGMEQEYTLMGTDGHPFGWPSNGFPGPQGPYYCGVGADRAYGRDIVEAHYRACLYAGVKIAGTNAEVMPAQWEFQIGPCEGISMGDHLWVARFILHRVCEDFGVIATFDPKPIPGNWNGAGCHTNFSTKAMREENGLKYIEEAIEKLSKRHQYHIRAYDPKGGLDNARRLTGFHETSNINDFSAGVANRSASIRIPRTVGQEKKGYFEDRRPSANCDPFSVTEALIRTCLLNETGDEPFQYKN

SMILES | Ki [nM]
CC(CC(N)C(=O)O)P(C)(=O)O (configuration not stated) [Phosphinothricin analog, 2 (D,L mixture)] | 140
CP(=O)(O)CCC(N)C(=O)O (stereo not drawn) [Phosphinothricin analog, 1 (L Isomer)] | 0.22
